Type in all cases: cell-based
The subject of one data set is colon cancer line HT29. The experiment in a line: Apo-ONE Homogeneous Caspase-3/7 assay of 17-AAG apoptotic activity. To be noted: HT29 cells, 72 hours at 37° C., Caspase-3/7 activity. The text has this:
The Apo-ONE® Homogeneous Caspase-3/7 Assay (Promega, Madison, Wis.) uses a proprietary lysis/activity buffer, in conjunction with the (Z-DEVD)2-Rhodamine 110 substrate, enables a simple “add-mix-read” format for the detection of caspase-3 and -7 in adherent, suspension, and primary culture cells, or in purified caspase preparations. The assay uses a rhodamine 110-based substrate allows for exquisite sensitivity previously unobtainable with conventional colorimetric or fluorometric assays.
Specifically, 100 μl of Apo-ONE® Caspase-3/7 Reagent was added to each well of a white or black 96-well plate containing 100 μl of blank, control or cells in culture. The plate was covered with a plate sealer for incubating for extended periods (>4 hours). In order to perform this assay in a 384-well plate, a 1:1 volume ratio of Apo-ONE® Caspase-3/7 Reagent to sample was used. The contents of wells were mixed using a plate shaker at 300-500 rpm from 30 seconds and incubated at room temperature for 6 hours. The fluorescence of each well was determined at 485/538 nm (a measure of apoptosis, with the higher ratio indicating more apoptosis).
The apoptotic activity of 17-AAG (17-(Allylamino)-17-demethoxygeldanamycin) was determined in the colon cancer line HT29 using an assay for Caspase-3/7 activity (Apo-ONE kit, Promega). 17-AAG-treated HT29 cells were compared with DMSO-treated control (FIG. 1). […]

Data set [1] concerns Her2. The experiment in a line: Her2 suppression assay (anti-Her2 immunostaining, absorbance at 405 nm). To be noted: BT474 cells, 24-hours treatment. The method, then:
Ten thousand BT474 cells per well were seeded into a microtiter plate and grown for 48 hours. After this preincubation, the BT474 cells treated with various concentrations of 17-AAG and its analogs for 24-hours. At the end of this incubation the media was removed from each well, each well was washed twice with ice-cold Tris buffer saline (containing 0.1% Tween 20) and the cells were fixed with Methanol (ice-cold) at […] for 10 minutes. The fixed BT474 cells were immunostained with anti-Her2 antibody. The presence of Her2 protein was determined by measurement of the absorbance at 405 nm in the plate reader.

The subject of data set [2] is Her2. The experiment in a line: Confocal imaging of Her2 internalization and degradation. To be noted: BT474 cells, concentration of IC50, 24 hours, confocal image. As to the method: 17-AAG treated BT474 cells were examined by the confocal images system. BT474 cells were seeded on the slide and treated at the concentration of IC50 for 24 hours. 17AAG-treated and control BT474 cells were fixed with Methanol, stained with Her2 antibody and analyzed by the confocal image.

Data set [3] relates to HT29 cells. The experiment in a line: Apoptotic activity of 17-AAG combined with anticancer agents (Apo-ONE kit). To be noted: three days after drug treatment. The method, then:
A panel of anticancer chemotherapeutical agents was tested for the enhancement of apoptotic activity with 17-AAG (using the same apoptotic assay system in Example 1), FIG. 4. HT29 cells were treated with various concentration of 17-AGG in the presence or absence of anticancer agents including known HSP70 promoter inducers. Three days after the drug treatment, the apoptotic activity was measured by the Apo-ONE kit (see above). When combined with the anticancer agents, including HSP70 inducers (such as Cisplatin, Etoposide, Doxorubicin, Velcade, Dimethylenastron). […] Some inhibition was also observed for other inducers of HSP70.

The next data set deals with HT29 colon cancer line. The data set can be described thus: miRNA library screen for enhancement of 17-AAG apoptotic activity (Apo-ONE caspase). To be noted: HT29, miRNA transfected 48 hours, then 17-AAG 48 hours, both 1:800 and 1:3200 dilutions of 17-AAG. As to the method: In order to observe an enhancement of activity in 17-AAG, a miRNA library of 470 Pre-miRNA precursors have been transfected (Ambion, siPORT NeoFx transfection agent) in to the HT29 colon cancer line and followed by 17-AAG treatment. Synthetic ds-miRNAs from the miRNA library were transfected into HT29 cells and incubated for 48 hours at 37° C. Various concentrations of 17-AAG were added to miRNA transfected HT29 cells and incubated for another 48 hours. 100 uL of media was aspirated from each well. Apo-One caspase reagent was prepared by diluting the substrate in buffer in a 1:100 concentration. 100 uL of the reagent was added to each well. Plates were incubated at room temperature for 6 hours. The apoptotic activity was measured by the Fluoroskan plate reader. […] Molecules that synergized at both 1:800 and 1:3200 dilutions of 17-AAG were miR-145, miR-454-3p, miR519a, miR-520c, and miR-520d (SEQ ID NOS:1-5), (FIG. 5, dark background, respectively).

For data set [4], the system named is HT29 cells. The experiment in a line: miRNA concentration dependency of 17-AAG synergy. To be noted: 17-AAG 3.125 ug/ml, miRNA 60, 30, 15, 7.5 nM. As to the method:
To confirm the activity shown in Example 6, the experiment was repeated with constant amount of 17-AAG (3.125 ug/ml) and increasing amount of miRNAs (60, 30, 15, 7.5 nM) used for transfection. […] There were two distinct classes of miRNAs according to activity (one class with high activity: miR454 (SEQ ID NO:2), miR-520c (SEQ ID NO:4) and miR-520d (SEQ ID NO:5); one class with low activity: miR-145 (SEQ ID NO:1) and miR-519a (SEQ ID NO:3)).

Data set [5] has as its system HT29 cells. The data set can be described thus: miRNA enhancement of oxaliplatin or paclitaxel apoptosis (Apo-ONE Caspase-3/7 Assay). To be noted: HT29, miRNA 30 nM 48 hours; for Level of apoptosis in oxaliplatin treated cells expressing exogenous miRNA: then 15.6 μg/ml oxaliplatin 48 hours; for Level of apoptosis in paclitaxel treated cells expressing exogenous miRNA: then 7.8 μg/ml paclitaxel 48 hours. The method, then:
A transfection medium was made up by diluting siPORT NeoFx (0.3 μl/well) in OPTI-MEM (16.7 ul/well) in the wells of a microtiter plate and this medium was incubated for 10 minutes at room temperature. A pre-miRNA library was diluted to 1 μM and […] of miRNA was added to each well (30 nM). This mixture was incubated at room temperature for another 10 minutes. HT29 cells were then added at 30,000 cells/well and the plates were incubated 48 hours 37° C.
For treatment with candidate therapeutic agents, the media was aspirated from each well and 200 μl/well of 15.6 μg/ml oxaliplatin, 7.8 μg/ml paclitaxel or negative control solution was added. The plates were incubated for 48 hours 37° C. The Apo-ONE® Homogeneous Caspase-3/7 Assay (Promega, Madison, Wis., USA) was performed on the treated cells. The reactions were performed in duplicate.

What is called EC50 is the concentration at which the effect is half-maximal. As a reminder, the IC50 is the concentration that gives 50% inhibition. On to `C=CCNC1=C2C[C@@H](C)C[C@H](OC)[C@H](O)[C@@H](C)/C=C(\C)[C@H](OC(N)=O)[C@@H](OC)/C=C\C=C(/C)C(=O)NC(=CC1=O)C2=O` [17-AAG, 17-(Allylamino)-17-demethoxygeldanamycin], for which the “EC50 of apoptosis induction” value with colon cancer line HT29 was found to be 0.07 µg/mL. The EC50 on colon cancer line HT29 (read-out: EC50 of apoptosis induction) is 120 nM. In addition, in the data set with Her2 [1], the IC50 was approximately 32 nM. The “Her2 protein expression and localization after treatment” value with Her2 [2] is listed as “eliminated from its cell surface sub-localization to cytoplasm”.

Regarding `CC(C)C[C@H](NC(=O)[C@H](Cc1ccccc1)NC(=O)c1cnccn1)B(O)O` [Velcade], the “Effect of the added anticancer agent on apoptotic activity of 17-AAG” value in the data set on HT29 cells [3] is “strongly inhibited”.

Consider “miR519a: miRNA AAAGUGCAUCCUUUUAGAGUGUUAC (SEQ ID NO:3) (listed as RNA, chemistry not given here; listed as Homo sapiens)”, for which the “Synergy with 17-AAG in apoptotic reading” value with HT29 colon cancer line is “synergized”. In addition, in the data set on HT29 cells [4], the “Class of activity in synergy with 17-AAG” value is “low activity”.

As for “miR-145: miRNA GUCCAGUUUUCCCAGGAAUCCCUU (SEQ ID NO:1) (listed as RNA, chemistry not given here; listed as Homo sapiens)”, in the data set on HT29 colon cancer line, the “Synergy with 17-AAG in apoptotic reading” value is “synergized”. Further, the “Class of activity in synergy with 17-AAG” value in the data set on HT29 cells [4] is on record as “low activity”.

Consider “miR-454-3p: miRNA UAGUGCAAUAUUGCUUAUAGGGUUU (SEQ ID NO:2) (listed as RNA, chemistry not given here; listed as Homo sapiens)”, for which the “Synergy with 17-AAG in apoptotic reading” value with HT29 colon cancer line is reported as “synergized”. The “Class of activity in synergy with 17-AAG” value with HT29 cells [4] is “high activity”. Further, the “Level of apoptosis in oxaliplatin treated cells expressing exogenous miRNA” value in the data set with HT29 cells [5] was “highest level of apoptosis”.

As to “miR-520c: miRNA AAAGUGCUUCCUUUUAGAGGGUU (SEQ ID NO:4) (listed as RNA, chemistry not given here; listed as Homo sapiens)”, the “Synergy with 17-AAG in apoptotic reading” value with HT29 colon cancer line is recorded as “synergized”. Moreover, the “Class of activity in synergy with 17-AAG” value in the data set on HT29 cells [4] is recorded as “high activity”. Besides, in the data set on HT29 cells [5], the “Level of apoptosis in oxaliplatin treated cells expressing exogenous miRNA” value was “highest level of apoptosis”.

Regarding “miR-520d: miRNA AAAGUGCUUCUCUUUGGUGGGUU (SEQ ID NO:5) (listed as RNA, chemistry not given here; listed as Homo sapiens)”, the “Synergy with 17-AAG in apoptotic reading” value in the data set with HT29 colon cancer line was “synergized”. For the same compound, the “Class of activity in synergy with 17-AAG” value in the data set with HT29 cells [4] is reported as “high activity”. In the data set on HT29 cells [5], the “Level of apoptosis in oxaliplatin treated cells expressing exogenous miRNA” value is on record as “highest level of apoptosis”.

“mir 425-3p: miRNA AUCGGGAAUGUCGUGUCCGCC (SEQ ID NO:6) (AUCGGGAAUGUCGUGUCCGCCC; listed as RNA, chemistry not given here; listed as Homo sapiens)”: in the data set on HT29 cells [5], the “Level of apoptosis in paclitaxel treated cells expressing exogenous miRNA” value is recorded as “highest levels of apoptosis”.

For “mir 495: miRNA AAACAAACAUGGUGCACUUCUUU (SEQ ID NO:7) (listed as RNA, chemistry not given here; listed as Homo sapiens)”, the “Level of apoptosis in paclitaxel treated cells expressing exogenous miRNA” value with HT29 cells [5] is given as “highest levels of apoptosis”.

Regarding “mir 572: miRNA GUCCGCUCGGCGGUGGCCCA (SEQ ID NO:8) (listed as RNA, chemistry not given here; listed as Homo sapiens)”, the “Level of apoptosis in paclitaxel treated cells expressing exogenous miRNA” value in the data set on HT29 cells [5] is “highest levels of apoptosis”.

In the case of “mir 661: miRNA UGCCUGGGUCUCUGGCCUGCGCGU (SEQ ID NO:9) (listed as RNA, chemistry not given here; listed as Homo sapiens)”, the “Level of apoptosis in paclitaxel treated cells expressing exogenous miRNA” value in the data set on HT29 cells [5] was “highest levels of apoptosis”.
